The values that follow come from patent publication US5587459A, “Immunoconjugates comprising tyrosine kinase inhibitors” (Regents of the University of Minnesota, priority 1994, dated 1996).

Like-named read-outs stand apart in the source and are kept apart here.

Data set [1] relates to NALM-6 cells (human B-lineage leukemia). As to the kind of experiment: SCID mouse model of human B-lineage leukemia. In kind it is in vivo. Particulars: SCID mice inoculated with NALM-6 cells; schedule of each treatment group as in Table 6. How it is done: (§1) The pharmacokinetic features of B43-GEN was evaluated in a SCID mouse model with human B-lineage leukemia as follows. SCID mice challenged with NALM-6 cells were treated with either 25 μg/mouse=168 pmols/mouse (>10-foldlower than the MTD) or 50 μg/mouse=335 pmols/mouse (>5-fold lower than the MTD). All control mice were treated with unconjugated GEN (10 μg/mouse=37 nmols/mouse), unconjugated B43 antibody (50 μg/mouse=335pmols/mouse), TXU(anti-CD7)-GEN control immunoconjugate (50 μg/mouse=335 pmols/mouse), or PBS.
All control mice treated with unconjugated GEN, unconjugated B43 antibody, TXU(anti-CD7)-GEN control immunoconjugate, or PBS died of disseminated human B-lineage leukemia at 24 to 61 days after inoculation (FIG. 8). […] These long-term surviving mice were electively killed at 142 days in order to examine their burden of human leukemia cells.

The target of data set [2] is T1, CD19-associated LYN kinase (Homo sapiens, UniProt P07948).
T1 construct: LYN kinase immunoprecipitated from NALM-6 cells; endogenous in cells; host or cells: NALM-6
Briefly: Immune complex kinase assay, LYN in treated NALM-6 cells. In kind it is cell-based. As to conditions: NALM-6 cells treated 4 hours; immunoconjugate nanomolar, unconjugated GEN micromolar. The method, then: Immune complex kinase assays were performed using acid-denatured rabbit enolase as an exogenous PTK substrate as previously described by Uckun et al. in J. Biol. Chem., 268, 21172 (1993).
Controls were treated with unconjugated GEN, TXU(anti-CD7)-GEN immunoconjugate directed against the CD7/Tp41 T-cell surface antigen, unconjugated and unmodified B43 antibody, or SANPAH-modified unconjugated B43 antibody.

Data set [3] in a line: in vivo. Particulars: Minimal Leukemia Burden. The data set is classed as in vivo, SCID mice. How it is done:
Lines represent two-compartment model simulations, symbols depict measured concentrations.
as §1

Data set [4] deals with tyrosine phosphorylation of abundant protein substrates in NALM-6 cells. Briefly: Antiphosphotyrosine immunoblotting, NALM-6 cells. The data set is classed as cell-based, human. As to conditions: immunoconjugate nanomolar, unconjugated GEN micromolar.
The nature of data set [5]: in vivo. Also on record: species or system SCID mice. Particulars: Minimal Leukemia Burden; for Kp: mouse, in vivo, iv. How it is done: FIG. 7[C] is a depiction of the plasma or tissue concentrations vs. time curves after i.v. injection of 58 pmol GEN (Δ) or BP43-GEN (o,) into SCID mice with end stage leukemia (dashed lines) or no leukemia (solid lines). Lines represent simulations from the physiological pharmacokinetic model, symbols depict measured concentrations.
as §1
This hypothesis is supported by measurement of higher concentrations of the immunoconjugate in tissues of SCID mice with end-stage leukemia, when compared to healthy SCID mice which have not been inoculated with leukemia cells (FIG. 7C). The spleen, liver, and lungs had the highest tissue-to-plasma ratio, with the tissue distribution ratio increasing approximately 2-fold in spleen and liver of mice with end-stage leukemia (Table 5). Although tissue distribution of the immunoconjugate into the femur was low in mice with a minimal leukemia burden, it increased 3-fold in mice with end-stage leukemia, reflecting binding of the immunoconjugate to CD19 positive human B-lineage leukemia cells infiltrating bone marrow.

Data set [6] relates to RAMOS cells (human Burkitt's lymphoma). As to the kind of experiment: SCID mouse model of human B-lineage lymphoma. In kind it is in vivo, SCID mice. As to conditions: 5×10^6 RAMOS cells; one value pooled over all control groups incl. PBS. How it is done:
Control mice were treated with unconjugated GEN (10 μg/mouse=37 nmols/mouse), unconjugated B43 monoclonal antibody (50 μg/mouse=335 pmols/mouse), TXU(anti-CD7)-GEN control immunoconjugate (50 μg/mouse=335 pmols/mouse), or PBS. For comparison, some mice were treated with B43-pokeweed antiviral protein (PAP) immunotoxin (total=25 μg/mouse), which is an active anti-leukemia agent. Uckun et al., J. Exp. Med., 163, 347 (1986). Survival of the mice was monitored by daily observation and event times were measured from the day of inoculation of lymphoma cells to the day of death. The probability of event-free survival was determined and event-free interval curves were generated using the Kaplan-Meier product limit method as described by Uckun et al. New Engl. J. Med., 329, 1296 (1993).

The next data set has as its system RAMOS cells. As to the kind of experiment: Apoptosis assays in RAMOS cells (morphology, DNA flow cytometry, DNA fragmentation). The data set is classed as cell-based, human. An excerpt: DNA was then electrophoresed through a 1% agarose gel and visualized by UV light after staining with ethidium bromide.
On the technique in general: Flow cytometry measures light scatter and fluorescence of single cells or particles in a stream.

Data set [7] concerns the target T2, human topoisomerase II enzyme (Homo sapiens, UniProt P11388).
T2 construct: purchased Topogen, Inc., Columbus, Ohio
As to the kind of experiment: Topoisomerase II Drug Screening kit (pRYG relaxation/cleavage). In kind it is biochemical. As to conditions: B43-GEN at micromolar concentrations. The source says:
The kit is based upon formation of DNA cleavage products after treatment of a supercoiled DNA substrate (pRYG) containing a single high affinity topoisomerase II recognition and cleavage site.

T1 sequence (P07948 2-512 limits assumed): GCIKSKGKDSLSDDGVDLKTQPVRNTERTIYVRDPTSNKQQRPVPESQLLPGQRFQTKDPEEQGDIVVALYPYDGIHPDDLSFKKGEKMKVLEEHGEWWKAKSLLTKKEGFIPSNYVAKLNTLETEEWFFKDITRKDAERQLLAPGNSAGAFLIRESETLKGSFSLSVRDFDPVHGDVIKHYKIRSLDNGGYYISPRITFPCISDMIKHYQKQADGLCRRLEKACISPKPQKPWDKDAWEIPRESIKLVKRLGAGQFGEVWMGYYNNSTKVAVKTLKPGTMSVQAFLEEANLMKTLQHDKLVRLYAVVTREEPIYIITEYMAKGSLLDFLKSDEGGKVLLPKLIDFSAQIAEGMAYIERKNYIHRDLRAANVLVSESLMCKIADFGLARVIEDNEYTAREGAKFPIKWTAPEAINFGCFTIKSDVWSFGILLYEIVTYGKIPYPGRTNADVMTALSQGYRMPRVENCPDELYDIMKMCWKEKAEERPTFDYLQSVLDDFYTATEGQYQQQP
T2 sequence (P11388 whole entry): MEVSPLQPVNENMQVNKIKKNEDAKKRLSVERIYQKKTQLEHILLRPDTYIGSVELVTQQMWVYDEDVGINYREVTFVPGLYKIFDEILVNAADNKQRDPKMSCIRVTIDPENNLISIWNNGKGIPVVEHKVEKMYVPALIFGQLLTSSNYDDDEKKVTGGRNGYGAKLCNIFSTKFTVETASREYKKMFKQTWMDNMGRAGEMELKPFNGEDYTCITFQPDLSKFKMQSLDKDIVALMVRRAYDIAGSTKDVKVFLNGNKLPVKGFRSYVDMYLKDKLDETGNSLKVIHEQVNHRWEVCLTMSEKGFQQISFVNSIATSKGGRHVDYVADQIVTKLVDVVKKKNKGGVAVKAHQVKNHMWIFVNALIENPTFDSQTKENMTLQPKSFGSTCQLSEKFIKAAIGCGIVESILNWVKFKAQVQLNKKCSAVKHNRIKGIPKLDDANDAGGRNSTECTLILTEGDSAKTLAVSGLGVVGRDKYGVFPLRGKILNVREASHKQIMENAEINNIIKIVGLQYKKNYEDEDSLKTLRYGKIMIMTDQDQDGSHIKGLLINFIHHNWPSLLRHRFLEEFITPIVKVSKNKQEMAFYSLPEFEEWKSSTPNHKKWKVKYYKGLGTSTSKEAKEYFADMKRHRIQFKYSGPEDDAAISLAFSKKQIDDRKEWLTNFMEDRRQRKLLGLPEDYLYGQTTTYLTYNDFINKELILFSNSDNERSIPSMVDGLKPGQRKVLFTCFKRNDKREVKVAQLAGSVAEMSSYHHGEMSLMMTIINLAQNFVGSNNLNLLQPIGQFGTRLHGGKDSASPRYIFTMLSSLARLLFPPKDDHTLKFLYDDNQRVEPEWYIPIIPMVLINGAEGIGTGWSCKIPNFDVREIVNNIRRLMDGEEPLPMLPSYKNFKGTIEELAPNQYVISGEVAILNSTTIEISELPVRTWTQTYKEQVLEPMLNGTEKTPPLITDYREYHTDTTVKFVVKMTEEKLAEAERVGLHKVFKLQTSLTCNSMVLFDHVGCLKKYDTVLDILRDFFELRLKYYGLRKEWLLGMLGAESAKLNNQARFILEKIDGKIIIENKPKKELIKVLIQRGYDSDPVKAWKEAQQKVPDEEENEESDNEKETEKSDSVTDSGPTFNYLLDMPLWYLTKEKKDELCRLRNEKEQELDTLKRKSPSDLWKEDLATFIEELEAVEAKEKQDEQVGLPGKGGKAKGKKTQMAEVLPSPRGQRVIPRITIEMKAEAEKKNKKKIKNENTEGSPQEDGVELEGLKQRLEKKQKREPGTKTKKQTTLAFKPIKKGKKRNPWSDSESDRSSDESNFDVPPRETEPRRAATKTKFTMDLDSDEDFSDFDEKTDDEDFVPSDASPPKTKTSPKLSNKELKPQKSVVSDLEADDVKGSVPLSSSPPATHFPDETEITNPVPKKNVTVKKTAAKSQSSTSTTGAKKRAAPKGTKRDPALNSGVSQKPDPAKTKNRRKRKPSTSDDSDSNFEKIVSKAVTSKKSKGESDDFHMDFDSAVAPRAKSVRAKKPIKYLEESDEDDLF

Turning to `O=P1(N(CCCl)CCCl)NCCCO1` (stereo not drawn) [Cyclophosphamide], in data set [1], the “EFS (%) 60 days” value was 40%, the “EFS (%) 120 days” value is reported as 10% and the “Median EFS” value was 54 days.

For `CC(=O)O[C@H]1C(=O)[C@@]2(C)[C@H]([C@H](OC(=O)c3ccccc3)[C@]3(O)C[C@H](OC(=O)[C@H](O)[C@@H](NC(=O)c4ccccc4)c4ccccc4)C(C)=C1C3(C)C)[C@]1(OC(C)=O)CO[C@@H]1C[C@@H]2O` [Taxol], in data set [1], the “EFS (%) 60 days” value is 0%, the “EFS (%) 120 days” value worked out at 0% and the “Median EFS” value is 37 days.

As for `CC[C@@]1(O)C(=O)OCc2c1cc1n(c2=O)Cc2cc3c(CN(C)C)c(O)ccc3nc2-1` [Topotecan], in data set [1], the “EFS (%) 60 days” value came to 18%, the “EFS (%) 120 days” value is 0% and the “Median EFS” value worked out at 44 days.

For `C[C@H]1C[C@@H]2[C@H](C(=O)C[C@@]3(C)[C@H]2CC[C@]3(O)C(=O)CO)[C@@]2(C)C=CC(=O)C=C12` [Methylprednisone], in data set [1], the “EFS (%) 60 days” value worked out at 40%, the “EFS (%) 120 days” value is listed as 20% and the “Median EFS” value stood at 56 days.

As to L-asparaginase, in data set [1], the “EFS (%) 60 days” value was found to be 0%, the “EFS (%) 120 days” value is 0% and the “Median EFS” value turned out to be 44 days.

For the molecule `COc1cccc2c1C(=O)c1c(O)c3c(c(O)c1C2=O)C[C@@](O)(C(=O)CO)C[C@@H]3O[C@H]1C[C@H](N)[C@H](O)[C@H](C)O1` [Doxorubicin], in data set [1], the “EFS (%) 60 days” value is 20%, the “EFS (%) 120 days” value is 0% and the “Median EFS” value worked out at 49 days.

Take `CC[C@]1(O)C[C@H]2CN(CCc3c([nH]c4ccccc34)[C@@](C(=O)OC)(c3cc4c(cc3OC)N(C=O)[C@H]3[C@@](O)(C(=O)OC)[C@H](OC(C)=O)[C@]5(CC)C=CCN6CC[C@]43[C@@H]65)C2)C1` [Vincristine]: in data set [1], the “EFS (%) 60 days” value was 0%, the “EFS (%) 120 days” value is given as 0% and the “Median EFS” value was 51 days.

`O=c1c(-c2ccc(O)cc2)coc2cc(O)cc(O)c12` [GEN, 5,7,4'-trihydroxyisoflavone]: the “Inhibition of LYN kinase (autophosphorylation, enolase substrate phosphorylation)” value in data set [2] is given as “failed to affect”. Further, the “Cl (systemic clearance from plasma)” value in “in vivo [3]” was 49.7 µL/h/g. Also, the “Kcp (distribution rate constant from central to peripheral compartment)” value in the data set “in vivo [3]” is 1.341 h⁻¹. For the same molecule, in “in vivo [3]”, the “Kpc (distribution rate constant from peripheral to central compartment)” value is 0.549 h⁻¹. In addition, in “in vivo [3]”, the “Vc (central volume of distribution)” value was 87.0 µL/g. Moreover, in “in vivo [3]” (mouse, in vivo, iv, read-out: Ke (elimination rate constant) (converted)), the k el is 0.000159 s⁻¹. Besides, the half-life in “in vivo [3]” (mouse, in vivo, iv, read-out: T1/2β (elimination halflife) (converted)) is 5.1 h. For the same molecule, in data set [4], the “Tyrosine dephosphorylation of abundant protein substrates” value was “failed to affect”. Further, the “Clearance, Kidney” value in the data set “in vivo [5]” came to 18.7 µL/h/g. For the same molecule, in “in vivo [5]”, the “Clearance, Liver” value is 40.9 µL/h/g. Moreover, the “Total Clearance” value in “in vivo [5]” is 59.6 µL/h/g. Moreover, the Kp turned out to be 0.027 in “in vivo [5]” (read-out: Linear Binding Constant (R), Brain); 0.335 in “in vivo [5]” (read-out: Linear Binding Constant (R), Heart); 0.253 in the data set “in vivo [5]” (read-out: Linear Binding Constant (R), Kidney); 0.5 in the data set “in vivo [5]” (read-out: Linear Binding Constant (R), Liver); 0.531 in “in vivo [5]” (read-out: Linear Binding Constant (R), Lungs); 0.095 in “in vivo [5]” (read-out: Linear Binding Constant (R), Muscle). Further, the Kp in “in vivo [5]” (read-out: Linear Binding Constant (R), Skin) was 0.208; in the data set “in vivo [5]” (read-out: Linear Binding Constant (R), Spleen) it was 0.04; in “in vivo [5]” (residual drug not accounted for by tissues studied, read-out: Linear Binding Constant (R), Rest of Body), 1.11. In data set [6], this molecule came in with a Median event-free survival of 48.0 days. In addition, the “DNA fragmentation / apoptosis by agarose gel electrophoresis” value in the data set with RAMOS cells (RAMOS cells, 8-24 hours, immunoconjugates nanomolar, unconjugated GEN micromolar) is given as “no fragmentation”. In the data set on RAMOS cells (high concentrations, FIG. 4B lower panel), the “DNA fragmentation by the unconjugated moieties” value was “induced DNA fragmentation”.

As to `COc1cc([C@@H]2c3cc4c(cc3[C@@H](O[C@@H]3O[C@@H]5CO[C@@H](c6cccs6)O[C@H]5[C@H](O)[C@H]3O)[C@H]3COC(=O)[C@H]23)OCO4)cc(OC)c1O` [teniposide (VM-26), teniposide], the “Inhibition of topoisomerase II (relaxation of supercoiled pRYG DNA)” value in data set [7] was “impairs the ability of human topoisomerase II to relax the supercoiled DNA substrate”.

As for `COc1cc([C@@H]2c3cc4c(cc3[C@@H](O[C@@H]3O[C@@H]5CO[C@@H](C)O[C@H]5[C@H](O)[C@H]3O)[C@H]3COC(=O)[C@H]23)OCO4)cc(OC)c1O` [Etoposide], in data set [1], the “EFS (%) 60 days” value was 60%, the “EFS (%) 120 days” value was 30% and the “Median EFS” value was 66 days.

Turning to `O=NN(CCCl)C(=O)NCCCl` [Carmustine], in data set [1], the “EFS (%) 60 days” value came to 20%, the “EFS (%) 120 days” value is on record as 0% and the “Median EFS” value came out at 54 days.

Regarding `Nc1ccn([C@@H]2O[C@H](CO)[C@@H](O)[C@@H]2O)c(=O)n1` [Cytarabine], in data set [1], the “EFS (%) 60 days” value amounted to 20%, the “EFS (%) 120 days” value is 0% and the “Median EFS” value came out at 57 days.
